# How the values were obtained:
# S. Enteritidis CVCC 1806 [1] = assay: Counts of live cells by Live and Dead BacLight SYTO9/PI staining and flow cytometry after NaClO stress treatment; assay type: cell-based, Salmonella enteritidis
# Procedure: the NaClO stock solution of NaClO disinfectant solution containing 56.8 mg/mL chlorine was diluted to 100 mg/L with sterilized sterile water for later use, and 0.5 ml of bacterial suspension (10^9 CFU/mL) and 100 mg/L NaClO solution were taken respectively into a sterile EP tube. The products in the sterile EP tube were vortex-mixed, and the stress concentration in the final system was 50 mg/L.
# The mixed reagent was placed at room temperature, and systems were obtained for processing every 0.5 h within a stress treatment for up to 3 h, and 100 μL 1.5% Na2S2O3 was added to terminate the reaction.
# Counts of live cells: the concentration of bacterial suspension was adjusted to 10^7-10^9 CFU/mL, and live, dead and injured bacteria were distinguished using commercial Live and Dead BacLight test kits (Molecular Probes, Carlsbad, CA, USA). […]
# S. Enteritidis CVCC 1806 [2] = assay: Counts of culturable cells by plate counting method after NaClO stress treatment; assay type: cell-based, Salmonella enteritidis; conditions: after 2.5 h of treatment with 50 mg/L NaClO solution, room temperature; FIG. 1
compound,measurement,setting,value
"OCl [NaClO, sodium hypochlorite]",total content of live cells and bacteria in the sub-lethal injury state in the system,"S. Enteritidis CVCC 1806 [1]; after 2.5 h of treatment with 50 mg/L NaClO solution, flow cytometry",60.03%
same,induction of VBNC state,"S. Enteritidis CVCC 1806 [1]; after 2.5 h of treatment with 50 mg/L NaClO, live minus culturable cells at maximum",enter the VBNC state
same,number of culturable cells,S. Enteritidis CVCC 1806 [2],0 CFU/ml

# Source: patent publication US20240018466A1, “METHOD FOR INDUCING SALMONELLA ENTERITIDIS INTO VBNC STATE BY SODIUM HYPOCHLORITE” (Zhejiang Academy of Agricultural Sciences, priority 2022, published 2024)
